Source: the NIST ThermoML archive (doi:10.1021/je030177j)

Details: Liquid, Capillary tube (Ostwald / Ubbelohde) method

O [water]
viscosity [mPa·s]
Details	297.88 K	319.09 K	340.98 K	370.39 K	408.77 K	447.38 K	483.66 K	538.57 K	574.32 K
10000 kPa	0.893	0.5912	0.4195	0.2947	0.206	0.1576	0.129	0.1005	0.0866
20000 kPa	0.8933	0.589	0.4232	0.2976	0.2107	0.161	0.1314	0.1027	0.0903
30000 kPa	0.8935	0.5978	0.4275	0.3012	0.2132	0.1637	0.134	0.1058	0.0932
